Measured values taken from ChEMBL document CHEMBL2346580, “Design, synthesis and SAR investigation of thienosultam derivatives as ADAMTS-5 (aggrecanase-2) inhibitors” (Bioorg Med Chem Lett, 2013).

What was measured:
[1] = species: Homo sapiens; assay: Selectivity ratio of inhibition of MMP2 (unknown origin) to ADAMTS5 (unknown origin)
[2] = biological target: 72 kDa type IV collagenase (Homo sapiens) (UniProt P08253); assay: Inhibition of MMP2 (unknown origin)
[3] = biological target: T1, A disintegrin and metalloproteinase with thrombospondin motifs 5 (Homo sapiens) (UniProt Q9UNA0); assay: Inhibition of ADAMTS5 (unknown origin) using QF-peptide containing an aggrecanase cleavage site by FRET assay
T1 sequence (whole entry): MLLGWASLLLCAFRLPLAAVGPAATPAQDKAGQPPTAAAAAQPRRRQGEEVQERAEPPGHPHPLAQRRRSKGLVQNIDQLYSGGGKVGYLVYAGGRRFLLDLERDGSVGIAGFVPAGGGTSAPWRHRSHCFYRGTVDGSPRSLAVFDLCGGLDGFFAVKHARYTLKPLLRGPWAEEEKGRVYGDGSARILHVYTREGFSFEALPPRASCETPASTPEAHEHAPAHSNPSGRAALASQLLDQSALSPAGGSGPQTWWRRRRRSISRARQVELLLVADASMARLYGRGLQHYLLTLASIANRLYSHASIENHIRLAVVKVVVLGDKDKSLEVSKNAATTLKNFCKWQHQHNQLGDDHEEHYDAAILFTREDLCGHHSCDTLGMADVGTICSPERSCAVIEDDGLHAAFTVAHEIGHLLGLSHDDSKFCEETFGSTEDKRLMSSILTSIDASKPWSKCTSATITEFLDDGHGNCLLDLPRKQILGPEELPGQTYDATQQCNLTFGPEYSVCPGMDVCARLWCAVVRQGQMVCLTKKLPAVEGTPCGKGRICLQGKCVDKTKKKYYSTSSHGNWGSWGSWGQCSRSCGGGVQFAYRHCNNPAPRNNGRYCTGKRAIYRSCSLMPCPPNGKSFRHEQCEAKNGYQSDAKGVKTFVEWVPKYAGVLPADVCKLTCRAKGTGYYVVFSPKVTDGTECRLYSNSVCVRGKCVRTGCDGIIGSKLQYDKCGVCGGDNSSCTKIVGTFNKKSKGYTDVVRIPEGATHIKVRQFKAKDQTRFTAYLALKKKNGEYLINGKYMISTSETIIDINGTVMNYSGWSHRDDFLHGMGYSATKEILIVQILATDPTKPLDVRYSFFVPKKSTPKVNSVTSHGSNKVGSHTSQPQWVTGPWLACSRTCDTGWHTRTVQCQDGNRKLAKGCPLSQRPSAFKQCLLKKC

[4] = biological target: T1, A disintegrin and metalloproteinase with thrombospondin motifs 5 (Homo sapiens); assay: Inhibition of ADAMTS5 (unknown origin) using QF-peptide containing an aggrecanase cleavage site at 10 uM by FRET assay
[5] = biological target: Stromelysin-1 (Homo sapiens) (UniProt P08254); assay: Inhibition of MMP3 (unknown origin)
Sequence of Stromelysin-1 (Homo sapiens) (P08254 100-477 limits assumed): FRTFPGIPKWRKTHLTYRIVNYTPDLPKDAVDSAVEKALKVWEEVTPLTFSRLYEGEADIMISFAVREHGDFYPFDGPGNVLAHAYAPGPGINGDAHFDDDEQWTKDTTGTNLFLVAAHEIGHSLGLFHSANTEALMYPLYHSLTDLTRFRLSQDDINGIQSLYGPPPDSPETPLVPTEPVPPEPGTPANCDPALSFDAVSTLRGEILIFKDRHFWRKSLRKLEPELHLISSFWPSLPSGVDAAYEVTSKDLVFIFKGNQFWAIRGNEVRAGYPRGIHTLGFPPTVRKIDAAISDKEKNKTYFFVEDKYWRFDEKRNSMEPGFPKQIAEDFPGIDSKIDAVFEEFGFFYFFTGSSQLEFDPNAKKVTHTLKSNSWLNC

[6] = biological target: Matrix metalloproteinase-14 (Homo sapiens) (UniProt P50281); assay: Inhibition of MMP14 (unknown origin)
[7] = biological target: T2, A disintegrin and metalloproteinase with thrombospondin motifs 4 (Homo sapiens) (UniProt O75173); assay: Inhibition of ADAMTS4 (unknown origin) at 10 uM
T2 sequence (whole entry): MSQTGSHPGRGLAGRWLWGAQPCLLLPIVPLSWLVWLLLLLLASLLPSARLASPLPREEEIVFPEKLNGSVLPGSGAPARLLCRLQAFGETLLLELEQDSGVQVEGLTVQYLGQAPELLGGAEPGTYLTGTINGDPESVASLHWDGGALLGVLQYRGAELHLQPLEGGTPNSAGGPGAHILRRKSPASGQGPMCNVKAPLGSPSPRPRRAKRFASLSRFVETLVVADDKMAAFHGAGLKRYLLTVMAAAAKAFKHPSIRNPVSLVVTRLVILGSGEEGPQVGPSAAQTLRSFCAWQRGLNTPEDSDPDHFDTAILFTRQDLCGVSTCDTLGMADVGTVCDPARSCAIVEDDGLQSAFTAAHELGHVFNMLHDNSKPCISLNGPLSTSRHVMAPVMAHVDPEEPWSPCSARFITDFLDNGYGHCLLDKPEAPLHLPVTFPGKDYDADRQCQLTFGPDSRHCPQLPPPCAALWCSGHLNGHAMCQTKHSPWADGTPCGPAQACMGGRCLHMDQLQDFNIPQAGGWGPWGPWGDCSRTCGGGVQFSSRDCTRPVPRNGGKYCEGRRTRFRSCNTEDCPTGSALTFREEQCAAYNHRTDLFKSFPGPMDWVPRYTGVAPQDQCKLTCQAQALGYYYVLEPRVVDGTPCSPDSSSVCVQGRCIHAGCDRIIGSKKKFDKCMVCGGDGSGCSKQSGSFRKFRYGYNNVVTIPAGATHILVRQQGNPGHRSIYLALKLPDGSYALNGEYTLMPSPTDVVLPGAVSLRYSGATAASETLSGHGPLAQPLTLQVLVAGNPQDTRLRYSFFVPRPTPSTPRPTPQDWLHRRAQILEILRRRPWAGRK

[8] = biological target: T2, A disintegrin and metalloproteinase with thrombospondin motifs 4 (Homo sapiens); assay: Inhibition of ADAMTS4 (unknown origin)
[9] = Clearance in Sprague-Dawley rat at 1 mg/kg, iv and 5 mg/kg, po; type: ADME, organism-based; conditions: in vivo
[10] = (§1) Oral bioavailability in Sprague-Dawley rat at 5 mg/kg; type: ADME, organism-based; conditions: Sprague-Dawley, in vivo
[11] = Volume of distribution at steady state in Sprague-Dawley rat at 1 mg/kg, iv and 5 mg/kg, po; type: ADME, organism-based; conditions: in vivo, read-out: Vdss
[12] = Half life in Sprague-Dawley rat at 1 mg/kg, iv and 5 mg/kg, po; type: ADME, organism-based; conditions: in vivo
[13] = tested on: Rattus norvegicus; assay: Cmax in Sprague-Dawley rat at 1 mg/kg, iv and 5 mg/kg, po; type: ADME, organism-based; conditions: in vivo
[14] = AUC (0 to infinity) in Sprague-Dawley rat at 1 mg/kg, iv and 5 mg/kg, po; type: ADME, organism-based; conditions: plasma
[15] = tested on: Rattus norvegicus; assay: as §1; type: ADME, organism-based; conditions: in vivo

Sequence of 72 kDa type IV collagenase (Homo sapiens) (P08253 110-660 limits assumed): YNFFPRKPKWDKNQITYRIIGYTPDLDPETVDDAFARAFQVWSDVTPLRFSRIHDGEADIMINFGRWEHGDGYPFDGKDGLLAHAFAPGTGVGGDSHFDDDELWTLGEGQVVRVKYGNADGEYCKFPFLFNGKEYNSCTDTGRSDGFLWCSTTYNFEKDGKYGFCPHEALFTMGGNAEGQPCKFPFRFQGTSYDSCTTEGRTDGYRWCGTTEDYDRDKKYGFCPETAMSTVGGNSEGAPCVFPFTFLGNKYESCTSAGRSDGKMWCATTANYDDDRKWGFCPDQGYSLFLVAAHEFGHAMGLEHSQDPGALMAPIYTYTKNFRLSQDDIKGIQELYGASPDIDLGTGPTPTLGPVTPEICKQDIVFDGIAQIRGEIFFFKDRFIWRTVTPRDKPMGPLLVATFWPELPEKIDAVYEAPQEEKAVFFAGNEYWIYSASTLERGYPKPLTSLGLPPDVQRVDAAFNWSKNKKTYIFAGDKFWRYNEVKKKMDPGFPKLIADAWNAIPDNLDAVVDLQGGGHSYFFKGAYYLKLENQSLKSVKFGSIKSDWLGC

SMILES	Ratio [1]	INH [2] [µM]	INH [3] [µM]	other results
CCC(C(=O)O)N1Cc2sc(-c3ccc(-c4ccc(N(C)Cc5ccccc5)nc4)cc3)cc2S1(=O)=O (racemic)	> 30	> 30	1	
CCC(C(=O)O)N1Cc2sc(N3CCN(c4ccccc4)CC3)cc2S1(=O)=O (racemic)		> 30		inhibition [4]: 9%
CC(C)[C@H](NS(=O)(=O)c1ccc(-c2ccccc2)cc1)C(=O)O		0.04	8.2	INH [5]: 0.038 µM; INH [8]: 3 µM
CCC(C(=O)O)N1Cc2sc(C#Cc3ccccn3)cc2S1(=O)=O (racemic)	> 3.23	> 30	9.3	
CCC(C(=O)O)N1Cc2sc(-c3ccc(-c4ccc5ccn(C)c5c4)cc3)cc2S1(=O)=O (racemic)	16.5	16.5	1	
CCC(C(=O)O)N1Cc2sc(-c3ccc(-c4ccc5cnn(C)c5c4)cc3)cc2S1(=O)=O (racemic)	13.3	4	0.3	
CCC(C(=O)O)N1Cc2sc(C#CCC3CCCCC3)cc2S1(=O)=O (racemic)	> 3.37	> 30	8.9	
CCC(C(=O)O)N1Cc2sc(/C=C/c3ccc(C(F)(F)F)cc3)cc2S1(=O)=O (racemic)	0.63	2	3.2	
CCC(C(=O)O)N1Cc2sc(-c3ccc(-c4cnn(Cc5ccccc5)c4)cc3)cc2S1(=O)=O (racemic)	> 75	> 30	0.4	clearance [9]: 278 mL/min/kg; bioavailability [10]: 47%; Vd [11]: 0.33 L/kg; half-life [12]: 1.8 h; Cmax [13]: 3090 ng/mL; AUC(0-inf) [14]: 4730 ng·h/mL; INH [5]: > 30 µM; INH [6]: > 30 µM; INH [8]: 8 µM
CCC(C(=O)O)N1Cc2sc(C#Cc3ccc(N(C)C)cc3)cc2S1(=O)=O (racemic)	> 20	> 30	1.5	clearance [9]: 58.3 mL/min/kg; F [15]: 179%; Vd [11]: 0.34 L/kg; half-life [12]: 2.8 h; Cmax [13]: 29500 ng/mL; AUC(0-inf) [14]: 106000 ng·h/mL; INH [5]: > 30 µM; INH [6]: > 30 µM; INH [8]: > 10 µM
CCC(C(=O)O)N1Cc2sc(C#Cc3cc(C(F)(F)F)cc(C(F)(F)F)c3)cc2S1(=O)=O (racemic)	> 6.12	> 30	4.9	
CCC(C(=O)O)N1Cc2sc(-c3ccc(-c4ccc(N(C)C)nc4)cc3)cc2S1(=O)=O (racemic)	> 4.5	> 30	7	

Continued, in another order:

Ratio [1]	INH [2] [µM]	INH [3] [µM]	SMILES	other results
2.79	3.9	1.4	CCC(C(=O)O)N1Cc2sc(-c3ccc(/C=C/c4ccccc4)cc3)cc2S1(=O)=O (racemic)	
	0.3		CCC(C(=O)NO)N1Cc2sc(-c3ccc(-c4ccccc4)cc3)cc2S1(=O)=O (racemic)	INH [5]: 20 µM; INH [6]: < 30 µM; inhibition [7]: 1.7%; inhibition [4]: 3%
> 13	> 30	2.3	CCC(C(=O)O)N1Cc2sc(-c3ccc(-c4ccsc4)cc3)cc2S1(=O)=O (racemic)	
> 20	> 30	1.5	CCC(C(=O)O)N1Cc2sc(C#Cc3ccc(-c4ccccc4)cc3)cc2S1(=O)=O (racemic)	
	16		CCC(C(=O)O)N1Cc2sc(-c3ccccc3)cc2S1(=O)=O (racemic)	INH [5]: 12 µM; INH [6]: > 30 µM; inhibition [7]: 1.7%; inhibition [4]: 3%
	> 30	> 10	CCC(C(=O)O)N1Cc2sc(-c3ccc(-c4cccnc4)cc3)cc2S1(=O)=O (racemic)	
	> 30		CCC(C(=O)O)N1Cc2sc(-c3ccn(Cc4ccccc4)n3)cc2S1(=O)=O (racemic)	inhibition [4]: 43.2%
	0.03	2.1	CCC(C(=O)NO)N1Cc2sc(-c3ccccc3)cc2S1(=O)=O (racemic)	INH [5]: 5.1 µM; INH [6]: 1.2 µM; INH [8]: 1.1 µM
> 7.5	> 30	4	CCC(C(=O)O)N1Cc2sc(-c3ccn(C#Cc4ccccc4)n3)cc2S1(=O)=O (racemic)	
0.78	1.8	2.1	CCC(C(=O)O)N1Cc2sc(-c3ccc(-c4ccccc4)cc3)cc2S1(=O)=O (racemic)	INH [5]: 1.2 µM; INH [6]: < 5.1 µM; inhibition [7]: 1.6%; INH [8]: 1.1 µM
	> 30	> 10	CCC(C(=O)O)N1Cc2sc(-c3ccc(-c4cnn(C)c4)cc3)cc2S1(=O)=O (racemic)	
> 23	> 30	1.3	CCC(C(=O)O)N1Cc2sc(-c3ccc(-c4cccs4)cc3)cc2S1(=O)=O (racemic)	
